Results on 16 compounds are retold here after ChEMBL document CHEMBL2029274, “Structure and property based design, synthesis and biological evaluation of γ-lactam based HDAC inhibitors: part II” (Bioorg Med Chem Lett, 2012).

A short description of series [1]: Metabolic stability in mouse liver microsomes assessed as compound remaining at 1 uM after 30 mins in the absence of NADPH. Format: ADME, Microsome. To be noted: read-out: Stability.
Series [2] in a line: Chemical stability in buffer assessed as compound remaining at 1 uM after 30 mins. Format: physicochemical. Conditions: read-out: Stability.
The nature of series [3]: Inhibition of HDAC by fluorescence assay.
For a further series, the system named is HCT-15. As to the kind of experiment: Antiproliferative activity against human HCT15 cells. The format is functional.
Series [4] in a line: Metabolic stability in mouse liver microsomes assessed as compound remaining at 1 uM after 30 mins in the presence of NADPH. Conditions: read-out: Stability. The format is ADME, Microsome. (Liver microsomes are vesicles of endoplasmic reticulum, rich in cytochrome P450 enzymes.)
In a further series the test system is NCI-H23. As to the kind of experiment: Antiproliferative activity against human NCI-H23 cells. Format: functional.
The next series concerns NUGC-3. In words: Antiproliferative activity against human NUGC3 cells. Format: functional.
The next series concerns PC-3. As to the kind of experiment: Antiproliferative activity against human PC3 cells. Format: functional.
In the next series the test system is MDA-MB-231. In words: Antiproliferative activity against human MDA-MB-231 cells. Format: functional.
For a further series, the system named is ACHN. In words: Antiproliferative activity against human ACHN cells. Format: functional.

Regarding `O=C(CCC1=CCN(CCc2ccc(C(F)(F)F)cc2)C1=O)NO`, the remaining at 0.5 h, 1 µM in series [1] turned out to be 73.9%; in series [2], 102%; in series [4], 75.9%. The IC50 (in general, the midpoint of a concentration-inhibition curve) in series [3] is 70 nM. The GI50 (as a rule, the concentration at which growth is held to half of that of the control) in the series with HCT-15 stood at 2.2 µM; in the series on NCI-H23, 1120 nM; in the series on NUGC-3, 1080 nM; with PC-3, 2.38 µM; in the series with MDA-MB-231, 1170 nM; in the series on ACHN it was 2480 nM.

For `O=C(CCC1=CCN(Cc2ccccc2)C1=O)NO`, in series [3], inhibition was half-maximal at 120 nM (IC50). Further, the GI50 in the series on HCT-15 stood at 5.37 µM; in the series with NCI-H23, 4290 nM; in the series with PC-3 it was 4.43 µM; with MDA-MB-231, 990 nM; in the series on ACHN, 1080 nM.

With `O=C(CCC1=CCN(CCc2ccccc2)C1=O)NO`, the values for the remaining at 0.5 h, 1 µM in series [1], in series [2] and in series [4] were 85.5%, 96.7% and 82.9%, respectively. In addition, in series [3], the IC50 worked out at 120 nM. This compound also showed a GI50 with MDA-MB-231 of 990 nM.

Consider `COc1cccc(CCN2CC=C(CCC(=O)NO)C2=O)c1`, for which half-maximal inhibition in series [3] (IC50) was put at 160 nM. Also, the GI50 in the series on HCT-15 is greater than 10 µM; in the series with NCI-H23 it was 1170 nM; in the series on NUGC-3 it was 3930 nM; in the series with PC-3, 2.59 µM; with MDA-MB-231 it was 1880 nM; with ACHN, 2480 nM.

Take `COc1ccc(CCN2CC=C(CCC(=O)NO)C2=O)cc1`: the figures for the remaining at 0.5 h, 1 µM in series [1], in [2] and in series [4] were 92%, 102% and 98.3%, respectively. For the same compound, half-maximal inhibition in [3] (IC50) required 190 nM. Also, the GI50 is greater than 10 µM in the series with HCT-15; 4020 nM with NCI-H23; 1420 nM in the series with NUGC-3; 3.17 µM in the series with PC-3; 1080 nM in the series on MDA-MB-231; 2380 nM with ACHN.

With `O=C(CCC1=CCN(Cc2cccc(C(F)(F)F)c2)C1=O)NO`, in series [3], the IC50 came to 120 nM. Besides, the GI50 with HCT-15 is 0.54 µM; in the series with NCI-H23 it was 680 nM; in the series on NUGC-3, 160 nM; in the series with PC-3 it was 0.88 µM; with MDA-MB-231, 220 nM; in the series with ACHN, 670 nM.

Consider `COc1ccccc1CCN1CC=C(CCC(=O)NO)C1=O`, for which, in [3], the IC50 is 130 nM. Also, the GI50 with HCT-15 was greater than 10 µM; in the series on NCI-H23 it was 4490 nM; in the series on NUGC-3 it was 2020 nM; in the series on PC-3, 3.51 µM; in the series with MDA-MB-231, 1500 nM; with ACHN it was 2530 nM.

For `COc1ccccc1CN1CC=C(CCC(=O)NO)C1=O`, in series [3], the IC50 was greater than 10000 nM. For the same compound, the GI50 is greater than 10 µM in the series with HCT-15; 6130 nM with NCI-H23; greater than 10000 nM with NUGC-3; 3.56 µM in the series with PC-3; 6030 nM with MDA-MB-231; greater than 10000 nM in the series with ACHN.

`O=C(CCC1=CCN(Cc2ccc(C(F)(F)F)cc2)C1=O)NO` registered an IC50 in [3] of 260 nM. The GI50 in the series with HCT-15 is 4.54 µM; in the series with NCI-H23 it was 6640 nM; in the series with NUGC-3, 3230 nM; in the series with PC-3, 4.36 µM; with MDA-MB-231, 3070 nM; with ACHN it was 4290 nM.

On to `COc1ccc(CCCN2CC=C(CCC(=O)NO)C2=O)cc1`, for which 270 nM corresponded to half-maximal inhibition in series [3] (IC50). The GI50 in the series with HCT-15 was greater than 10 µM; in the series with NCI-H23, 2510 nM; in the series on NUGC-3, 5480 nM; with PC-3 it was 7 µM; in the series on MDA-MB-231 it was 2560 nM; in the series on ACHN, 4750 nM.

As for `O=C1CC2(CCCC2)CC(=O)N1CCCCN1CCN(c2ncccn2)CC1` [BUSPIRONE], the remaining at 0.5 h, 1 µM came to 0.1% in series [1], 108% in [2] and 106% in series [4].

On to `COc1ccc(CN2CC=C(CCC(=O)NO)C2=O)cc1`, for which, in series [3], the midpoint of inhibition, the IC50, lay at 450 nM. Besides, the concentration for 50% growth inhibition (GI50) came to 1.72 µM in the series on HCT-15; 1640 nM in the series with NCI-H23; 1110 nM in the series with NUGC-3; 3.12 µM in the series on PC-3; 1630 nM in the series with MDA-MB-231; 2480 nM with ACHN.

`COc1cccc(CN2CC=C(CCC(=O)NO)C2=O)c1` yielded a concentration for half-maximal inhibition (IC50) in series [3] of 380 nM. In addition, the GI50 with HCT-15 turned out to be 2.82 µM; in the series with NCI-H23 it was 1970 nM; in the series on NUGC-3, 1750 nM; in the series on PC-3, 3.89 µM; in the series with MDA-MB-231, 1770 nM; in the series with ACHN, 4430 nM.

In the case of `COc1ccccc1CCCN1CC=C(CCC(=O)NO)C1=O`, the IC50 in [3] turned out to be 130 nM. Also, the GI50 is greater than 10 µM in the series on HCT-15; 4490 nM with NCI-H23; 2020 nM in the series on NUGC-3; 3.51 µM with PC-3; 1500 nM with MDA-MB-231; 2530 nM in the series on ACHN.

In series [3], `O=C(CCC1=CCN(CCc2cccc(C(F)(F)F)c2)C1=O)NO` registered an IC50 of 120 nM. For the same compound, the GI50 stood at 6.01 µM with HCT-15; 1110 nM with NCI-H23; 920 nM with NUGC-3; 2.77 µM with PC-3; 2170 nM in the series with MDA-MB-231; 1170 nM in the series on ACHN.

In the case of `COc1cccc(CCCN2CC=C(CCC(=O)NO)C2=O)c1`, the IC50 in series [3] is 160 nM. Besides, the GI50 is greater than 10 µM in the series on HCT-15; 1170 nM in the series with NCI-H23; 3930 nM with NUGC-3; 2.59 µM in the series with PC-3; 1880 nM in the series on MDA-MB-231; 2480 nM with ACHN.
